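1) Cells in 96-well plates. 2) Compound, 48 h, 5 concentrations. 3) Linear interpolation between surrounding doses. 4) Unreached endpoint = highest concentration. Definition used: TGI = concentration required for complete inhibition of growth.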
Legend:
Experiment in all cases: growth of human tumour cells (NCI), 48 h
HS 578T breast = test system: HS 578T breast
M14 melanoma = test system: M14 melanoma
OVCAR-5 ovarian = test system: OVCAR-5 ovarian
HL-60(TB) leukemia = test system: HL-60(TB) leukemia
NCI/ADR-RES ovarian = test system: NCI/ADR-RES ovarian
MDA-N = test system: MDA-N
MDA-MB-231 breast = test system: MDA-MB-231 breast
MOLT-4 leukemia = test system: MOLT-4 leukemia
SK-MEL-5 melanoma = test system: SK-MEL-5 melanoma
ACHN renal = test system: ACHN renal
HCC-2998 colon = test system: HCC-2998 colon
SN12C renal = test system: SN12C renal
KM12 colon = test system: KM12 colon
IGROV1 ovarian = test system: IGROV1 ovarian
A498 renal = test system: A498 renal
UACC-257 melanoma = test system: UACC-257 melanoma
LOX IMVI melanoma = test system: LOX IMVI melanoma
SK-MEL-28 melanoma = test system: SK-MEL-28 melanoma

Compound: CCC(C#N)N(Cc1cccc(CN(C(C)=O)C(C#N)CC)c1)C(C)=O (stereo not drawn)
- TGI (HS 578T breast): > 100 µM
- TGI (M14 melanoma): > 100 µM
- TGI (OVCAR-5 ovarian): > 100 µM
- TGI (HL-60(TB) leukemia): > 100 µM
- TGI (NCI/ADR-RES ovarian): > 100 µM
- TGI (MDA-N): > 100 µM
- TGI (MDA-MB-231 breast): > 100 µM
- TGI (MOLT-4 leukemia): > 100 µM
- TGI (SK-MEL-5 melanoma): > 100 µM
- TGI (ACHN renal): > 100 µM
- TGI (HCC-2998 colon): > 100 µM
- TGI (SN12C renal): > 100 µM
- TGI (KM12 colon): > 100 µM
- TGI (IGROV1 ovarian): > 100 µM
- TGI (A498 renal): > 100 µM
- TGI (UACC-257 melanoma): > 100 µM
- TGI (LOX IMVI melanoma): > 100 µM

Compound: CC(=O)C1=CC=C/C1=N\Nc1ccccc1
- TGI (HS 578T breast): 34.9 µM
- TGI (M14 melanoma): 22.7 µM
- TGI (OVCAR-5 ovarian): 19.7 µM
- TGI (HL-60(TB) leukemia): 5.5 µM
- TGI (NCI/ADR-RES ovarian): > 100 µM
- TGI (MDA-N): 19.2 µM
- TGI (MDA-MB-231 breast): 24.2 µM
- TGI (MOLT-4 leukemia): 29.6 µM
- TGI (SK-MEL-5 melanoma): 29.8 µM
- TGI (ACHN renal): 23.4 µM
- TGI (SK-MEL-28 melanoma): 27 µM
- TGI (HCC-2998 colon): 20.5 µM
- TGI (SN12C renal): 22.7 µM
- TGI (KM12 colon): 15.5 µM
- TGI (IGROV1 ovarian): 21.3 µM
- TGI (UACC-257 melanoma): 33.5 µM
- TGI (LOX IMVI melanoma): 9.02 µM

Compound: CC(=O)OCc1ccc(-c2nc(C#N)c(N)o2)o1
- TGI (HS 578T breast): > 10 µM
- TGI (M14 melanoma): > 10 µM
- TGI (HL-60(TB) leukemia): > 10 µM
- TGI (NCI/ADR-RES ovarian): > 10 µM
- TGI (MDA-N): > 10 µM
- TGI (MDA-MB-231 breast): > 10 µM
- TGI (MOLT-4 leukemia): > 10 µM
- TGI (SK-MEL-5 melanoma): > 10 µM
- TGI (ACHN renal): > 10 µM
- TGI (SK-MEL-28 melanoma): > 10 µM
- TGI (HCC-2998 colon): > 10 µM
- TGI (SN12C renal): > 10 µM
- TGI (KM12 colon): > 10 µM
- TGI (IGROV1 ovarian): > 10 µM
- TGI (UACC-257 melanoma): > 10 µM
- TGI (LOX IMVI melanoma): > 10 µM

Compound: COCOc1cc(OC)ccc1C=O
- TGI (HS 578T breast): 64.9 µM
- TGI (M14 melanoma): > 100 µM
- TGI (OVCAR-5 ovarian): > 100 µM
- TGI (HL-60(TB) leukemia): > 100 µM
- TGI (NCI/ADR-RES ovarian): 52.1 µM
- TGI (MDA-N): 23.7 µM
- TGI (MDA-MB-231 breast): > 100 µM
- TGI (MOLT-4 leukemia): > 100 µM
- TGI (SK-MEL-5 melanoma): > 100 µM
- TGI (ACHN renal): > 100 µM
- TGI (SK-MEL-28 melanoma): > 100 µM
- TGI (HCC-2998 colon): 71.5 µM
- TGI (SN12C renal): > 100 µM
- TGI (KM12 colon): > 100 µM
- TGI (IGROV1 ovarian): > 100 µM
- TGI (UACC-257 melanoma): > 100 µM
- TGI (LOX IMVI melanoma): > 100 µM

Compound: CCCCc1ccc(N2C(=O)c3cc(C)cnc3S2(=O)=O)cc1
- TGI (HS 578T breast): > 100 µM
- TGI (M14 melanoma): > 100 µM
- TGI (OVCAR-5 ovarian): > 100 µM
- TGI (HL-60(TB) leukemia): > 100 µM
- TGI (NCI/ADR-RES ovarian): > 100 µM
- TGI (MDA-N): > 100 µM
- TGI (MDA-MB-231 breast): > 100 µM
- TGI (MOLT-4 leukemia): > 100 µM
- TGI (SK-MEL-5 melanoma): > 100 µM
- TGI (ACHN renal): > 100 µM
- TGI (SK-MEL-28 melanoma): > 100 µM
- TGI (HCC-2998 colon): > 100 µM
- TGI (SN12C renal): > 100 µM
- TGI (KM12 colon): > 100 µM
- TGI (IGROV1 ovarian): > 100 µM
- TGI (LOX IMVI melanoma): > 100 µM
